In ChEMBL document CHEMBL1201862, “PubChem BioAssay data set” (2004):
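Grown in 96-well plates, cells were treated for 48 hours with each compound at five concentrations. Insufficient inhibition: endpoint recorded as highest concentration tested. GI50: concentration for 50% inhibition of growth.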 Calls of active or inactive are those of the source. Rule as the data show it: active = GI50 up to about 1.1 µM and inactive = higher.

Key:
Assay in all cases: NCI anticancer screen, dose series, 48 h
HOP-92 = test system: HOP-92
RXF 393 = test system: RXF 393
SK-OV-3 = test system: SK-OV-3
SK-MEL-2 = test system: SK-MEL-2
PC-3 = test system: PC-3
NCI-H226 = test system: NCI-H226
OVCAR-3 = test system: OVCAR-3
NCI-H522 = test system: NCI-H522
A549 = test system: A549
COLO 205 = test system: COLO 205
NCI/ADR-RES = test system: NCI/ADR-RES
SF-268 = test system: SF-268
SK-MEL-28 = test system: SK-MEL-28
RPMI-8226 = test system: RPMI-8226
ACHN = test system: ACHN
SF-295 = test system: SF-295
SNB-19 = test system: SNB-19
UO-31 = test system: UO-31
MDA-N = test system: MDA-N
MDA-MB-231 = test system: MDA-MB-231

Row | Structure (SMILES) | GI50 (HOP-92) | GI50 (RXF 393) | GI50 (SK-OV-3) | GI50 (SK-MEL-2) | GI50 (PC-3) | GI50 (NCI-H226) | GI50 (OVCAR-3) | GI50 (NCI-H522) | GI50 (A549) | GI50 (COLO 205) | GI50 (NCI/ADR-RES) | GI50 (SF-268) | GI50 (SK-MEL-28) | GI50 (RPMI-8226) | GI50 (ACHN) | GI50 (SF-295) | GI50 (SNB-19) | GI50 (UO-31) | GI50 (MDA-N) | GI50 (MDA-MB-231)
1 | COc1cc(/C=C2/CCCc3ccccc3C2=O)cc(OC)c1OC | 14.8 µM (inactive) | 28.9 µM (inactive) | 25.5 µM (inactive) | 20.6 µM (inactive) | 10.1 µM (inactive) | 9.62 µM (inactive) | 19.2 µM (inactive) | 11.3 µM (inactive) | 27 µM (inactive) | 18.2 µM (inactive) | 9.2 µM (inactive) | 14.7 µM (inactive) | 22 µM (inactive) | 2.63 µM (inactive) | 15.8 µM (inactive) | 18.4 µM (inactive) | 32.5 µM (inactive) | 14.6 µM (inactive) | 9.53 µM (inactive) | 15.6 µM (inactive)
2 | C/C(=N\Nc1cc(CN2CCCC2)c(-c2ccc(Cl)cc2)nn1)C(=O)O | > 100 µM (inactive) | > 100 µM (inactive) | > 100 µM (inactive) | > 100 µM (inactive) | > 100 µM (inactive) | > 100 µM (inactive) | 90.2 µM (inactive) | > 100 µM (inactive) | > 100 µM (inactive) | > 100 µM (inactive) | > 100 µM (inactive) | > 100 µM (inactive) | > 100 µM (inactive) | > 100 µM (inactive) | > 100 µM (inactive) | > 100 µM (inactive) | > 100 µM (inactive) | > 100 µM (inactive) | > 100 µM (inactive) | > 100 µM (inactive)
3 | COc1cc2cc(C(=O)N3C[C@H](CCl)c4c3cc(N)c3ccccc43)[nH]c2c(OC)c1OC | 0.0489 µM (active) | 0.571 µM (active) | 0.22 µM (active) | 2.05 µM (inactive) | 0.0507 µM (active) | 9.51 µM (inactive) | 0.555 µM (active) | 0.001 µM (active) | 1.3 µM (inactive) | 0.0173 µM (active) | 0.00791 µM (active) | 0.593 µM (active) | 0.0172 µM (active) | 0.0275 µM (active) | < 0.005 µM (active) | 2.61 µM (inactive) | 0.713 µM (active) | 0.005 µM (active) | < 0.01 µM (active) | 3.36 µM (inactive)
4 | C=C1C(=O)[C@@]23CC[C@@H]4[C@@]5(C)CCC[C@@]4(OC5=O)[C@@]2(C)CC[C@@H]1C3 | 4.48 µM (inactive) | 1.01 µM (active) | 9.23 µM (inactive) | 2.13 µM (inactive) | 1.76 µM (inactive) | 2.08 µM (inactive) | 1.78 µM (inactive) | 0.497 µM (active) | 3.28 µM (inactive) | 2.11 µM (inactive) | 3.08 µM (inactive) | 1.72 µM (inactive) | 2.74 µM (inactive) | 0.508 µM (active) | 1.24 µM (inactive) | 5.06 µM (inactive) | 3.23 µM (inactive) | 1.9 µM (inactive) | 1.87 µM (inactive) | 1.73 µM (inactive)
5 | O=C1Nc2ccccc2/C1=N/NC(=S)N1CCCCC1 | 2.25 µM (inactive) | 0.0906 µM (active) | 2.01 µM (inactive) | 1.79 µM (inactive) | 0.337 µM (active) | 1.37 µM (inactive) | 0.145 µM (active) | 2.79 µM (inactive) | 0.428 µM (active) | 0.774 µM (active) | 0.0415 µM (active) | 0.493 µM (active) | 2.17 µM (inactive) | 0.299 µM (active) | 0.397 µM (active) | 0.256 µM (active) | 1.98 µM (inactive) | 0.592 µM (active) | 1.48 µM (inactive) | 0.393 µM (active)
6 | O=C(/C=C/c1ccccc1)CCN1CCCCC1 | > 100 µM (inactive) | 24.2 µM (inactive) | 75 µM (inactive) | > 100 µM (inactive) | 52.7 µM (inactive) | > 100 µM (inactive) | 31.2 µM (inactive) | 21.4 µM (inactive) | 54.1 µM (inactive) | 18 µM (inactive) | 38.8 µM (inactive) | 42.5 µM (inactive) | 24.2 µM (inactive) | 14.7 µM (inactive) | 84.7 µM (inactive) | 99.5 µM (inactive) | > 100 µM (inactive) | 34.9 µM (inactive) | 24.9 µM (inactive) | 26 µM (inactive)
7 | COC/C=C\[C@]1(O)CCCC[C@@H]1CC(OC)OC | > 100 µM (inactive) | > 100 µM (inactive) | > 100 µM (inactive) | > 100 µM (inactive) | > 100 µM (inactive) | > 100 µM (inactive) | > 100 µM (inactive) | 67.5 µM (inactive) | > 100 µM (inactive) | > 100 µM (inactive) | > 100 µM (inactive) | > 100 µM (inactive) | > 100 µM (inactive) | 97.7 µM (inactive) | > 100 µM (inactive) | > 100 µM (inactive) | > 100 µM (inactive) | > 100 µM (inactive) | > 100 µM (inactive) | > 100 µM (inactive)
